# Measured values: ChEMBL document CHEMBL1201862, “PubChem BioAssay data set” (2004)
# Calls of active or inactive are those of the source.
# Legend:
# [1] = Vero E6 cell cytotoxicity, dose response, cytotoxicity control for non-replicating M. tuberculosis project, secondary assay (AID 492998); type: functional, VeroE6; settings: Vero C1008
# [2] = target: DNA damage-inducible transcript 3 protein (Mus musculus, UniProt P35639); type: functional, Cricetulus griseus
# X-box-binding protein 1 = X-box-binding protein 1 (Homo sapiens, UniProt P17861); type: functional, Cricetulus griseus;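 further: confirmatory dose-response counter-screen serving a CHOP assay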
# [3] = target: T1, Kappa-type opioid receptor (Homo sapiens, UniProt P41145); experiment: KOR agonist analogs, arrestin-GFP redistribution, SAR follow-up, imaging, image-based, set 3 (AID 488833); type: functional
# Mu-type opioid receptor = Mu-type opioid receptor (Homo sapiens, UniProt P35372); experiment: SAR Analysis of Agonists of the MOR Receptor using an Image-Based Assay - Set 3. [Related pubchem assays (depositor defined):AID1777, AID1785, AID1786, AID1966, AID2133, AID2136, AID2284, AID2285, AID2352]; type: functional
# [4] = target: Delta-type opioid receptor (Homo sapiens, UniProt P41143); experiment: SAR Analysis of Agonists of the DOR Receptor using an Image-Based Assay - Set 3. [Related pubchem assays (depositor defined):AID1777, AID1786]; type: functional
# [5] = target: T1, Kappa-type opioid receptor; experiment: SAR analysis of small molecule agonists of the kappa opioid receptor via a luminescent beta-arrestin assay - Set 3. [Related pubchem assays (depositor defined):AID1777, AID1785, AID1786, AID1966, AID2133, AID2136, AID2284, AID2500]; type: functional
# [6] = target: Voltage-dependent T-type calcium channel subunit alpha-1H (Homo sapiens, UniProt O95180); experiment: Cav3.2 T-type channel inhibitors, synthesized analogs, SAR follow-up, cell-based, synthetic library set 2, HEK293 HH8, Fluo-4 (AID 493023); type: functional
# Bcl-2-related protein A1 = target: T2, Bcl-2-related protein A1 (Mus musculus, UniProt Q07440); type: functional;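 further: confirmatory dose–response counterscreen on Bfl-1, used to check hits from a UBC13 polyubiquitin inhibitor campaign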
# T2 sequence (Q07440 whole entry): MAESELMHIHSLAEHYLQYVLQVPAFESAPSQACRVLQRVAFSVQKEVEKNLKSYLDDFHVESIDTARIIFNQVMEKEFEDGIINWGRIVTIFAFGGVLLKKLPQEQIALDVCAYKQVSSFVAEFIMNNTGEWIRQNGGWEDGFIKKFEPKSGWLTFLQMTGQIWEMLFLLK
# [7] = target: T3, Ubiquitin-conjugating enzyme E2 N (Homo sapiens, UniProt P61088); type: functional
# T3 sequence (P61088 whole entry): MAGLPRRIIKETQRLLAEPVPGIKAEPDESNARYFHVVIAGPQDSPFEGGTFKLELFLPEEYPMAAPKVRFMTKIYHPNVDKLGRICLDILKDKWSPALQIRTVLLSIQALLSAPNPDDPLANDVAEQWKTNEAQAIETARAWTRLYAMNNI
# [8] = target: T3, Ubiquitin-conjugating enzyme E2 N; type: functional; remark: listed apart in the source
# [9] = target: T4, Type-1 angiotensin II receptor (Homo sapiens, UniProt P30556); experiment: AT1 receptor agonists, dose response, selectivity assay for APJ receptor agonist project, cell-based, uHTS hits (AID 488865); type: functional;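 further: beta-arrestin recruitment to AT1 measured by enzyme fragment complementation luminescence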
# T4 sequence (P30556 whole entry): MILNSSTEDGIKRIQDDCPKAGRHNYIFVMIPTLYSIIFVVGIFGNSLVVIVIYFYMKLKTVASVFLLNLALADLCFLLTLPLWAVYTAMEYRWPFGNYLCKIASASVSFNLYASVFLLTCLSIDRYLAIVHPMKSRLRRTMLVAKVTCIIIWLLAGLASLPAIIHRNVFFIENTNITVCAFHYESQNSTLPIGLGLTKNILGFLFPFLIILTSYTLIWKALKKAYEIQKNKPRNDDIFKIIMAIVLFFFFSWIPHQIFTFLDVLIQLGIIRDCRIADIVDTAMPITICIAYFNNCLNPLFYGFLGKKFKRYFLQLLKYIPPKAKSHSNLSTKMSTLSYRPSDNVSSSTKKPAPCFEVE
# [10] = target: T5, DNA repair protein RAD52 homolog (Homo sapiens, UniProt P43351); type: functional, biochemical
# T5 sequence (P43351 whole entry): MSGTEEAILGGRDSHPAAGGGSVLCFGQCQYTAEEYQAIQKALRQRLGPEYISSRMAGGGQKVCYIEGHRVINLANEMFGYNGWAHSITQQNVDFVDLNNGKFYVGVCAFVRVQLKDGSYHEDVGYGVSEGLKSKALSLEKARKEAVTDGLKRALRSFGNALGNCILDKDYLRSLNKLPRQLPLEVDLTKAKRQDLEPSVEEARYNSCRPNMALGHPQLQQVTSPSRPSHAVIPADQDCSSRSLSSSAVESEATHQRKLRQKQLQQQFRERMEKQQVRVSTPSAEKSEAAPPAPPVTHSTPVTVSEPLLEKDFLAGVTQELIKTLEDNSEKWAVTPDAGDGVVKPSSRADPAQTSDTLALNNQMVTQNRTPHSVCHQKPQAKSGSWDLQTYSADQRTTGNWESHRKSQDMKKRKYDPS
# [11] = target: T6, Tyrosine-protein phosphatase non-receptor type 22 (Homo sapiens, UniProt Q9Y2R2); experiment: LYP (PTPN22) phosphatase inhibitor potency, SAR follow-up, biochemical, pCAP fluorogenic substrate, fluorescence, set 3 (AID 449727); type: functional
# T6 sequence (Q9Y2R2 whole entry): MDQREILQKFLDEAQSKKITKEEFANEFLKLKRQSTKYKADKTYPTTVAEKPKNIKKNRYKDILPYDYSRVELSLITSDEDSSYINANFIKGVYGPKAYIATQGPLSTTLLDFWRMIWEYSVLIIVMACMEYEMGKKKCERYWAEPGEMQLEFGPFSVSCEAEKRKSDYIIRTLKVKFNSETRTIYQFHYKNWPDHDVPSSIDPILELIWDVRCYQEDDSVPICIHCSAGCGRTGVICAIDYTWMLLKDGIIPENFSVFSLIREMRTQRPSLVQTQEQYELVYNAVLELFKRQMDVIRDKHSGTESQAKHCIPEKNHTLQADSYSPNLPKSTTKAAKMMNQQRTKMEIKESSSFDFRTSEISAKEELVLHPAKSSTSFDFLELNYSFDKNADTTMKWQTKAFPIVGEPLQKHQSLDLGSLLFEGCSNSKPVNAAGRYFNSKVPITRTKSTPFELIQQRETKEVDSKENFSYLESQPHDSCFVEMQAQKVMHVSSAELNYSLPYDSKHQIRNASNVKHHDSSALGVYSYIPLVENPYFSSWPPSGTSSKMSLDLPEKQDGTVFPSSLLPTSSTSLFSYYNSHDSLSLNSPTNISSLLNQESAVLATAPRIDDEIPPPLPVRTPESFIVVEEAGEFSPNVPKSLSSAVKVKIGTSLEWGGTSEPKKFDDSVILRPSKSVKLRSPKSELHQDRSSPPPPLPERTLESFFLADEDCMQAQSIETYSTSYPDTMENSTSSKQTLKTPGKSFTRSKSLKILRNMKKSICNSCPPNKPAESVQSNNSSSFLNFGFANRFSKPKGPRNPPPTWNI
# [12] = target: T6, Tyrosine-protein phosphatase non-receptor type 22; experiment: PubChem AID 2135
# [13] = target: T6, Tyrosine-protein phosphatase non-receptor type 22; experiment: PubChem AID 2140
# T1 sequence (P41145 whole entry): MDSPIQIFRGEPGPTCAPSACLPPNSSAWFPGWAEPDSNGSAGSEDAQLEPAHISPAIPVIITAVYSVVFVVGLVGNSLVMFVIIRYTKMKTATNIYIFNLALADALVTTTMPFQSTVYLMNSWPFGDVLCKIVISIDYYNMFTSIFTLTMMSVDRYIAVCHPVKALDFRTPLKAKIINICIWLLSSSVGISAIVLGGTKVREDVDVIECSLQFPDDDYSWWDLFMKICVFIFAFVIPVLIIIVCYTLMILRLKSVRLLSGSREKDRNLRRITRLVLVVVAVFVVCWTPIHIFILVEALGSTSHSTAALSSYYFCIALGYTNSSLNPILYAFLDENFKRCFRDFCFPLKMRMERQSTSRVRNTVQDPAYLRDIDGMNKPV
# Sequence of X-box-binding protein 1 (P17861 whole entry): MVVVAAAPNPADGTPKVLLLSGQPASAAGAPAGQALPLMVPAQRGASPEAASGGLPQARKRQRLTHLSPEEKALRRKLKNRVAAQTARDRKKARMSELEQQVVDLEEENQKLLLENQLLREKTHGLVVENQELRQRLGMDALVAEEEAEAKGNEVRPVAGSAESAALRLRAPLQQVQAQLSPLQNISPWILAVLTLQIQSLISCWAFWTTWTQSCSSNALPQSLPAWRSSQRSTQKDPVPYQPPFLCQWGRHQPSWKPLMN
# Sequence of DNA damage-inducible transcript 3 protein (P35639 whole entry): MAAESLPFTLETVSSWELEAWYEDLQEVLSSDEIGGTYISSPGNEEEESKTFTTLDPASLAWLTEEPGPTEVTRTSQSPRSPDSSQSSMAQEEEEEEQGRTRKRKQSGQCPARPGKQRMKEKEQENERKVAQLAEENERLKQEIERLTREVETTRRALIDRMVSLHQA
# Sequence of Mu-type opioid receptor (P35372 whole entry): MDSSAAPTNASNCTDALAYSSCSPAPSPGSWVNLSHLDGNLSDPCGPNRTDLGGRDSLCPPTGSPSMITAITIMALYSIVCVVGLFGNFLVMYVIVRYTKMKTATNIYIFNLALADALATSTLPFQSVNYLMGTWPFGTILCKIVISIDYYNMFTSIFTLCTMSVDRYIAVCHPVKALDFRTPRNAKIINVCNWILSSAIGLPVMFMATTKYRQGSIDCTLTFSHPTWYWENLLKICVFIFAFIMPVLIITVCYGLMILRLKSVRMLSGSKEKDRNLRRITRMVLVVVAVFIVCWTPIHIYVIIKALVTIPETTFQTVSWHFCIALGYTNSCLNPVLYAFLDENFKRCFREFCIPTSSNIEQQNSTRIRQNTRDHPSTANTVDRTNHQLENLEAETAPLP
# Sequence of Delta-type opioid receptor (P41143 whole entry): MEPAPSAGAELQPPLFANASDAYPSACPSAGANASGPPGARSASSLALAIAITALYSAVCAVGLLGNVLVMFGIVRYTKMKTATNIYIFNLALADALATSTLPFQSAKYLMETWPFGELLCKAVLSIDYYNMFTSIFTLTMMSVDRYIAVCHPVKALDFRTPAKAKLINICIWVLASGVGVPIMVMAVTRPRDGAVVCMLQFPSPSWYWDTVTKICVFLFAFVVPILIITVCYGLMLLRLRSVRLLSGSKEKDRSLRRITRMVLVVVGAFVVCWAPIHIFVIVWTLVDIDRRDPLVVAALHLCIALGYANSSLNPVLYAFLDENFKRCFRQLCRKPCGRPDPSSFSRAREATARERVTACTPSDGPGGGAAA
# Sequence of Voltage-dependent T-type calcium channel subunit alpha-1H (O95180 whole entry): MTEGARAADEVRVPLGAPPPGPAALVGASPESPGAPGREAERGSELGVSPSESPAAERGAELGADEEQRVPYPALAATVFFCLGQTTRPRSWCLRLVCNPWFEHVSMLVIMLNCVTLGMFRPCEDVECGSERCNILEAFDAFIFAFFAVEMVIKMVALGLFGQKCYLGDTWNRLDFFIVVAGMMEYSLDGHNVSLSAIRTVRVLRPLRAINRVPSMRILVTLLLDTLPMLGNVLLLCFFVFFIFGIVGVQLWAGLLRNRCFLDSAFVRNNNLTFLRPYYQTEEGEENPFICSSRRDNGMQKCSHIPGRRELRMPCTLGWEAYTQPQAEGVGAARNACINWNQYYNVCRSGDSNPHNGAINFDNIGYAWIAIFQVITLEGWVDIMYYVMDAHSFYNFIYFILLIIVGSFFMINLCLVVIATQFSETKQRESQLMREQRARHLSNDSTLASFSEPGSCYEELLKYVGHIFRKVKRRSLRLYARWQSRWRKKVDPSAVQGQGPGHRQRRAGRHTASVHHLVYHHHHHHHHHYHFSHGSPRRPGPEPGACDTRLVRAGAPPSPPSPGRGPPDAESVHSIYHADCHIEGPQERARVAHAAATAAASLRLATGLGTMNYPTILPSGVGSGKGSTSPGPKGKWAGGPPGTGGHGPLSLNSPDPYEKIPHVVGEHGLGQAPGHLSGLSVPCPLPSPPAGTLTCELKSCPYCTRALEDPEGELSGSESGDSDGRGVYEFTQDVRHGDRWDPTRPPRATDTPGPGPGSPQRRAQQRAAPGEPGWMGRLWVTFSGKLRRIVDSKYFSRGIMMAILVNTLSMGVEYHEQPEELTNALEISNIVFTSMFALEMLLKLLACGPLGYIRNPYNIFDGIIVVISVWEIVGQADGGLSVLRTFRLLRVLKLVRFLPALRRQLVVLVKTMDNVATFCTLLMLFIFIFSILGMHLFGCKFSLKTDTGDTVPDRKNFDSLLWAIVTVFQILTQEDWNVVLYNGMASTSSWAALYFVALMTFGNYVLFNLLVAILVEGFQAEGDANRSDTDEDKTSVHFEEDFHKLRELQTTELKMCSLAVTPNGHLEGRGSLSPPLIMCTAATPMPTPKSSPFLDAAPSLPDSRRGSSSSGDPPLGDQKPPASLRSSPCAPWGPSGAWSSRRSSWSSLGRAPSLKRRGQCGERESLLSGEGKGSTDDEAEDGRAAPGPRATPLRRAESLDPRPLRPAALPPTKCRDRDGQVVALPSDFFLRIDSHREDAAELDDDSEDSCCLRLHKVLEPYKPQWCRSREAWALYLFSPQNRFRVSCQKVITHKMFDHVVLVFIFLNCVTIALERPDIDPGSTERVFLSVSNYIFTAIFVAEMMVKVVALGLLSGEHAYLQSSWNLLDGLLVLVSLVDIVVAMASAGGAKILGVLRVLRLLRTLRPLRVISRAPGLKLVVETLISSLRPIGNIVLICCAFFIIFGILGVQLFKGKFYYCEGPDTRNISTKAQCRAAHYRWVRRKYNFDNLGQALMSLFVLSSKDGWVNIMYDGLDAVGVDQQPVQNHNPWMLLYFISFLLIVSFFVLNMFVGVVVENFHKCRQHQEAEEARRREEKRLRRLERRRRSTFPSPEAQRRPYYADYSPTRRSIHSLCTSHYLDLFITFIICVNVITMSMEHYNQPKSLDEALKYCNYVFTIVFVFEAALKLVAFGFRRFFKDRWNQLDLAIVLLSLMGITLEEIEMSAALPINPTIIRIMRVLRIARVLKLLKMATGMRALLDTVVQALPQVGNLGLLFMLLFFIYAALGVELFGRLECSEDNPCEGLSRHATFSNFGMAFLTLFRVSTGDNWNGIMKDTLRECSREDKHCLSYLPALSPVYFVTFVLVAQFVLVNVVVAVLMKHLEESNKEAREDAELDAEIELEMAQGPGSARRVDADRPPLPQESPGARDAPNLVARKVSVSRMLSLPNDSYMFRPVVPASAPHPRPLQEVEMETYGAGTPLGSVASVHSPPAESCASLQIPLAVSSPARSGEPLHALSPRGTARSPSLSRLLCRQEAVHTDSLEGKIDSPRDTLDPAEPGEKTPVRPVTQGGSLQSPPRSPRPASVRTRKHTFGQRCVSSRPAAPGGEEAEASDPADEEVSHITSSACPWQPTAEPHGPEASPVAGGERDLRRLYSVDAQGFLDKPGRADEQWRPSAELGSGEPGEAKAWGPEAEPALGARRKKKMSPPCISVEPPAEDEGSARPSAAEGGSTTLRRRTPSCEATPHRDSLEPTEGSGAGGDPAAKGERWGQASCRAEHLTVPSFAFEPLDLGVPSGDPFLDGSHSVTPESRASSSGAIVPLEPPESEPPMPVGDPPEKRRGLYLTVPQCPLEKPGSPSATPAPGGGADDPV
structure (smiles),measurement,setting,value
O=C1NN(c2ccccc2)C(=O)/C1=C/c1ccc(Sc2ccc(Cl)cc2)o1,CC50,[1],> 20 µM (active)
same,Absolute IC50 (CHOP),[2],10 µM
same,Absolute IC50 (XBP1),X-box-binding protein 1,10 µM
Fc1ccc(CSc2nnc(-c3ccccn3)n2Cc2cccs2)c(C(F)(F)F)c1,EC50,[3],2.26 µM (active)
same,EC50,Mu-type opioid receptor,> 32 µM (inactive)
same,EC50,[4],> 32 µM (inactive)
same,EC50,[5],4.46 µM (active)
CC(C)(C)CCN1CCC[C@H](NC(=O)COc2ccccc2F)C1,EC50,[6],10 µM (active)
COc1cccc2sc(N(CCCN(C)C)C(=O)c3ccc(S(=O)(=O)N4CCc5ccccc5C4)cc3)nc12,IC50,Bcl-2-related protein A1,> 20 µM (inactive)
same,IC50,[7],13.9 µM (active)
same,IC50,[8],10.8 µM (active)
same,EC50,[9],> 100 µM (inactive)
same,AC50,[10],23.1 µM (active)
CCOc1ccc2nc(NC(=O)CSC3=Nc4sc(C)c(C)c4C(=O)C3)sc2c1,IC50,[11],> 100 µM (inactive)
same,IC50,[12],> 100 µM (inactive)
same,IC50,[13],43.4 µM (active)
